# Reference: a melting point compilation (Tetko et al.; mined from patent text by program, amines drawn as free bases though some values may be those of a salt)
row,Compound,melting point
1,CCCc1cnc(-c2ccc(F)cc2)nc1,52.7 °C
2,O=C(Nc1ccc(F)cc1)c1ccccc1C(c1ccc(O)cc1)c1ccc(O)cc1,122 to 124 °C
3,COc1ccc2nc(NC(=O)C(CC3CCCC3)c3ccc(S(=O)(=O)N(C)C)cc3)sc2n1 (centres undefined),229 to 234 °C
4,N#Cc1ccccc1Cn1cc(-c2ccnc(N)c2)n(-c2ccc(F)cc2)c1=O,182 to 183 °C
5,COc1ccc(Cn2c(=O)cc(-c3ccccn3)c3cnc(N4CCC[C@H]4CO)nc32)cc1Cl,184 to 186 °C
6,CCCNC(=O)N(C)C1CCNCC1,84 to 86 °C
7,CC(=O)Nc1cccc(Nc2ncc3ccc(-c4cccn4CCC#N)n3n2)c1,131 to 139 °C
8,CCCSc1sc(C(=O)N2CCCC2)c2c1-c1oncc1C(C)(C)C2,72 to 76 °C
9,CC(=O)c1cnc2onc(C)c2c1O,162 °C
10,CCCCCC(=O)C=CC1=C(CCC(=O)O)C(=O)CC1O (centres undefined),57 °C
11,CN(C)c1ccc(NC(=O)N(CCC2=CCCCC2)C[C@H]2CCC[C@H](CN(CCC3=CCCCC3)C(=O)Nc3ccc(N(C)C)cc3)C2)cc1 (relative stereo),80 to 83 °C
12,CSC(=NS(=O)(=O)c1ccc(C)cc1)N1CCc2nc(N)sc2C1,191 to 195 °C
13,Cc1cnc(C)n1CC(=O)c1ccc(-c2ccc(N3C[C@H](Cn4ccnn4)OC3=O)cc2F)cn1,112 to 115 °C
14,COC(c1cc2c3c(c1)c(C)cc(=O)n3CC2)(C(F)(F)F)C(F)(F)F,242 to 243 °C
15,CCCCCCCCCCCCCCOc1ccc(OC(=O)N(C)Cc2ccccn2)cc1,67 to 68 °C
16,CSC(=S)Nc1ccc2c(c1)OCO2,114 to 115 °C
17,N#CCCC(CCC#N)(CCC#N)[N+](=O)[O-],114 °C
18,COC(=O)c1nc(CN(C)C)n(-c2ccc(Cl)cc2C(=O)c2ccccc2Cl)n1,131 to 134 °C
19,CCOc1cc2c(cc1OCC)-c1c(C#N)sc(=N)n1CC2,180 to 182 °C
20,O=C(c1cc(C(F)(F)F)cc(C(F)(F)F)c1)N1CCC2(CC1)C(=O)NCN2c1ccc(Cl)cc1,233 to 235 °C
21,Clc1ncc(-c2nc(Cl)nc(Cl)c2Br)c(Cl)n1,136 to 138 °C
22,COc1cc(OCc2ccc(C(=O)N(C)C3CCCCC3)cc2)cc(OC)c1OC,116 °C
23,NC(=O)CCSSSSCCC(N)=O,127 °C
24,O=C(CCc1cc2cccnc2n(-c2cccc([N+](=O)[O-])c2)c1=O)c1ccncc1,200 to 202 °C

row,Compound,melting point
1,N=C(Nc1ccc(Cl)cc1)Nc1ncccc1OCc1c(F)cccc1Cl,168 to 170 °C
2,CCN(CC)c1ccc(C2(CNC(=O)Nc3c(C(C)C)cccc3C(C)C)CCCC2)cc1,138 to 140 °C
3,C[C@H]1CN(c2c(F)c(N)c3c(=O)c(C(=O)O)cn(C4CC4)c3c2F)C[C@H]1CN (relative stereo),221 to 223 °C
4,O=C1C2CC=CCN2C(=O)N1c1cc(O)c(Cl)cc1F (centres undefined),195 to 197 °C
5,C[C@H](N)Cn1ncc2ccc3oc(C(=O)NCCCN4CCCC4=O)cc3c21,82 °C
6,CC(=O)c1c(-c2ccc(F)cc2)sc(-c2ccncc2)c1C,116 to 118 °C
7,CC(C)(C)C(=O)C1CCCS1(=O)=O (centres undefined),53 to 56 °C
8,COc1ccc(C2=NN(C3CCN(C(=O)c4c(Cl)cc(Cl)cc4Cl)CC3)C(=O)CC2)cc1OC,156 to 159 °C
9,CN1CCN(NS(=O)(=O)c2cc([N+](=O)[O-])c(Cl)s2)CC1,91 °C
10,O=C(NCCCCC1CCSS1)N1CCCCC1 (centres undefined),90 to 91 °C
11,COc1ccc(-c2ccc(C(=O)Nc3ccc4nc(CN5CCCCC5)ccc4c3)cc2)cc1,192 to 194 °C
12,CC(C)(C)c1ccc(NC(=O)NCc2ccc(-n3c(-c4cccnc4N)nc4cccnc43)cc2)cc1,210 to 212 °C
13,COc1cc(-n2nc(C(F)(F)F)cc2C(F)(F)F)ccc1NC(=O)c1snnc1C,119 to 121 °C
14,CN(C)CCNC1=CC(=O)c2nc(-c3cc(F)ccc3F)oc2C1=O,162 to 163 °C
15,Cc1cc(-c2cc(C(F)F)n3ncc(C(=O)Nc4cccc(S(=O)(=O)N5CCN(C)CC5)c4)c3n2)ccc1C(F)(F)F,198 °C
16,CCn1c(=O)c2[nH]c(/C=C/c3cc(OC)c(OC)cc3[N+](=O)[O-])nc2n(CC)c1=O,284 °C
17,C=CC(C)Nc1c(-c2c(F)cc(F)cc2F)c(Cl)nc2ncnn12 (centres undefined),101 °C
18,CCOC(=O)c1ccc(COc2ccc3c(c2)C(C)(C)CCC3(C)C)cc1,76 to 77 °C
19,OCc1ccc2oc(-c3cccs3)nc2c1,158 to 159 °C
20,OCC(Cl)=C(Cl)CC(O)(Cn1cncn1)C1(Cl)CC1 (centres undefined),130 to 132 °C
21,O=S(=O)(c1ccccc1)c1c[nH]c2ccc(CCN3CCN(Cc4ccccc4)CC3)cc12,150 to 153 °C
22,CC1=C(C#N)S(=O)c2ccc(C(F)(F)F)cc2N1 (centres undefined),290 to 292 °C
23,OC(CCN1CC=C(c2ccccc2)CC1)c1cccc2ccccc12 (centres undefined),93 to 94 °C
24,CON(C)CCNc1ncnc2nc[nH]c12,168 to 170 °C

# Results, then the compound that gave them:
row,melting point,Compound
1,51 to 53 °C,C(#Cc1cccc2ccccc12)c1ccccc1
2,136 to 139 °C,CC(C)(C)OC(=O)Nc1ccc(OCc2ccccc2)c(C(=O)O)c1
3,120 to 123 °C,CN1C(=O)C(c2ccccc2)NC(=O)/C1=C/c1c[nH]c2ccccc12 (centres undefined)
4,192 to 194 °C,COc1cc2c(cc1Nc1ncc(Cl)c(Nc3ccccc3OC)n1)CCOC(=O)N2C
5,174 to 176 °C,O=C(/C=C/C(=O)c1ccc(Cl)cc1)c1ccc(Cl)cc1
6,72 to 74 °C,Cc1ccc(NC(=O)C(F)(F)F)cc1C(F)(F)F
7,174 to 178 °C,O=C(c1ccc([N+](=O)[O-])cc1)N1Cc2cccn2-c2ccccc21
8,90.5 to 91.5 °C,CCn1c2cccc(C=O)c2c2c3ccccc3ccc21
9,209 to 211 °C,CCOC(=O)NN=Cc1nc(-c2ccccc2)[nH]c1C
10,175 to 177 °C,CCOc1cc(C(=CC#N)c2ccc(NC(C)=O)cc2)ccc1OC
11,72 to 74 °C,CCOC(=O)c1cccn2cc(C(C)(C)C)nc12
12,145 to 146 °C,CC(C)(Oc1ccc(CCNC(=O)C=Cc2ccccc2Cl)cc1)C(=O)O
13,80 to 83 °C,COc1c(I)c(OC)c2ccccc2c1C(=O)OCc1ccccc1
14,292 to 295 °C,O=C(O)C1Cc2c(c(Cl)cc3c(=O)c4ccccc4oc23)O1 (centres undefined)
15,128 to 131 °C,O=C(CC(=O)C(F)(F)F)Nc1cc(-c2ccccc2Br)n[nH]1
16,107 to 108 °C,Cc1cc(NS(=O)(=O)c2ccccc2)no1
17,185 to 187 °C,Oc1cccc(Oc2ccc(Cl)nn2)c1
18,105 to 106 °C,CCCc1c(OCc2ccccc2)ccc2c(C)c(C(=O)c3ccc(OC)cc3)oc12
19,188 to 189 °C,NNC(=O)NN=Cc1ccc(Cl)cc1
20,188 °C,NC1=NN(c2cccc(Cl)n2)C(c2ccccc2)C1 (centres undefined)
21,235 °C,Cn1c(=O)c(C#N)c(Cl)c2ccccc21
22,180 °C,COc1cccc(N(C)C)c1C(=O)NC(=O)Nc1cccc(C(F)(F)F)c1
23,> 335 °C,O=c1c(-c2ccccc2)c[nH]cc1-c1ccccc1
24,100 to 103 °C,COc1ccc(/C=C(\C#N)c2ccccc2Br)cc1OC1CCCC1
25,150 to 153 °C,O=C(CNc1ccccc1F)Nc1ccc([N+](=O)[O-])cc1
26,145 to 148 °C,O=c1[nH]c2ccccc2n1Cc1ccc(OC(F)(F)F)cc1

row,melting point,Compound
1,213 to 214 °C,Cc1oc(-c2ccccc2)nc1CCOc1ccc(C=C2SC(=O)NC2=O)cc1
2,95 to 97 °C,CC1(COc2ccc(OCCNCC(O)COc3ccccc3)cc2)OCCO1 (centres undefined)
3,95.5 to 97 °C,COc1ccc(/C=C(\C#N)c2ccccc2[N+](=O)[O-])cc1OC1CCCC1
4,103 to 104 °C,N#CCCn1nc(-c2ccccc2)ccc1=O
5,175 to 177 °C,COC(=O)C1(C(N)=O)OC1c1ccccc1 (centres undefined)
6,167 to 169 °C,CCCCCN1C(=O)C(N)(CC(=O)c2cccs2)c2ccccc21 (centres undefined)
7,132 to 135 °C,O=C1N(Cc2ccc(Cl)s2)c2ccccc2C12COc1ccc(OCc3ccccc3)cc12 (centres undefined)
8,162 to 164 °C,CCOC(=O)C1=C(C)NC(c2nccn2Cc2ccccc2)=NC1c1ccc(F)cc1 (centres undefined)
9,110 to 113 °C,C[C@H](NC(=O)OCc1ccccc1)C(=O)N1CCC[C@H]1C(=O)NC1CCCCCC1
10,122 to 124 °C,O=c1c2ccccc2oc2c(C3CCCCC3)cccc12
11,118 to 120 °C,Clc1nc(Cl)nc(-c2ccccc2)n1
12,244 to 247 °C,CC(C)c1ccccc1N1C(=O)CS/C1=N\C(=O)Nc1ccc(-c2nnc(-c3ccc(OC(F)(F)C(F)(F)F)cc3)o2)cc1
13,71 to 72 °C,CC(C)[C@H](OCc1ccccc1)[C@H]1[C@H]([N+](=O)[O-])[C@H](c2ccccc2)N[C@@H]1C(=O)NCC(=O)O
14,165 °C,CS(=O)(=O)C(=C1CN(C(c2ccccc2)c2ccccc2)C1)c1ccc(Cl)cc1Cl
15,280 °C,CCOCC(=O)Nc1nc[nH]c1-c1n[nH]c(-c2ccc(-c3ccccc3)cc2)n1
16,90 to 92 °C,C[Si](C)(C)N1C(=O)c2ccccc2S1(=O)=O
17,147 to 148 °C,COC(=O)c1cc(NC(C)=O)ccc1O
18,156 to 157 °C,COC(=O)c1ccc(/C=C/c2nc(-c3ccccc3)c(C)s2)cc1
19,215 °C,CCOC(=O)C1=C(N)NC(N)=C(C(=O)OCC)C1c1ccccc1-c1ccccc1
20,267 to 269 °C,CCNC(=O)NC1(c2ccc(C(C)C)cc2OC)C(=O)c2ccccc2C1=O
21,86 to 89 °C,CCOP(=O)(CC(Cc1ccccc1)NS(=O)(=O)c1ccc(C)cc1)OCC (centres undefined)
22,199 to 200 °C,COC(=O)C(NS(=O)(=O)c1ccc(-c2ccc(NC(=O)c3oc4cccc(C)c4c3C)cc2)cc1)C(C)C (centres undefined)
23,151 to 159 °C,O=C(O)COc1c(-c2cc(Cl)cc(Cl)c2)cc(C(=O)NCCCCCCc2ccccc2)cc1-c1cc(Cl)cc(Cl)c1
24,94 °C,COCCNC(=O)c1nc(C(=O)OC)c2cc(Cc3ccc(F)cc3)cnc2c1OCc1ccccc1
25,139 to 142 °C,CC1(COC(=O)c2ccccc2)COC(CBr)(c2ccc(Cl)cc2Cl)OC1 (centres undefined)
